Values quoted from earlier work in patent publication US10258642B2, “Dextran sulfate for use in mobilization of cells” (TX MEDIC AB, priority 2013, dated 2019).
Where two headings read alike, the source gives them in different places.

Columns and labels:
CFU-GM = details: cited from earlier work
[1] = system: colony forming cells (CFCs); details: mice (Sweeney 2000, 2002); cited from earlier work
[2] = system: colony forming cells (CFCs); details: monkeys (Sweeney 2000, 2002); cited from earlier work

## dextran sulfate [dextran sulfate 10 kDa]
CFU-GM; colonies with >50 cells, G-CSF 10 μg/kg daily for five days and/or dextran sulfate 15 mg/kg once on day 5 (Han 1998)
  CFU-GM level: 12.9±1.6 colonies
CFU-GM; i.v. injection of 15-30 mg, mice (Han 1998)
  time of peaks in peripheral WBC, MNC and CFU-GM: 2 to 5 h
[1]
  time of CFC mobilization after dextran sulfate administration: 3 h
[2]
  time of CFC mobilization after dextran sulfate administration: 6 h
